{"source": "patent US6703413B2", "about": "(Rhode Island Hospital, priority 1999, dated 2004)", "key": {"[1]": {"tested_on": "SKOV-3 human ovarian tumor cells", "assay": "Cell cycle distribution and sub-G0/G1 DNA debris, flow cytometry", "type": "cell-based", "conditions": "for Cell Cycle Distribution, G0G1 / Cell Cycle Distribution, G2/M / Cell Cycle Distribution, S: SKOV3, 48 h", "description": "(§1) Three×10^5 cells were seeded in plastic tissue culture flasks. […] Control cultures received an appropriate volume of Kollidine-17P. […] The percentage of DNA debris in the sub-G0/G1 region was assessed using cytofluorometric techniques. Each bar represents the mean (±SE) of three determinations. ** p≦0.01, *** p≦0.001, **** p≦0.0001\n(§2) For flow cytometry studies, 1×10^6 PA-1, SKOV-3, or NIH-3T3 cells were incubated for 24 h in appropriate media containing serum. […] Control cultures for each cell line were incubated in media containing 40 μl of 5% Kollidon 17 PF alone. Forty-eight hours later, all cells were harvested by trypsinization and prepared for cytofluorometric analysis by standard methods. For example, harvested cells were resuspended in ice cold phosphate-buffered saline at a final cell density of 2×10^6 cells/ml. The cells then were stained for 30 min at room temperature in the dark with a solution of 0.05 mg/ml propidium iodide, 0.6% Igepal, and 1% sodium citrate. Flow cytometry was performed by FACScan (Becton Dickinson, Plymouth, England) using the ModFit LT program (Becton Dickinson). Statistical analysis was performed with the Kruskal Wallis non-parametric ANOVA test followed by Dunn's multiple comparisons test using Instat.\n(§3) Three×10^5 cells were seeded in plastic tissue culture flasks. […] Control cultures received an appropriate volume of Kollidine-17P. After an additional 48 h, cells were harvested, stained with propidium iodide, and cell cycle distribution assessed using cytofluorometric techniques. Each value represents the percentage of cells in the noted cell cycle phases and is the mean±SEM of three determinations."}, "[2]": {"tested_on": "NIH-3T3 murine fibroblasts", "assay": "Cell cycle distribution and sub-G0/G1 DNA debris, flow cytometry", "type": "cell-based", "conditions": "NIH-3T3, 48 h", "description": "as §1, §2, §3"}, "PA-1 cells": {"tested_on": "PA-1 cells", "assay": "PARP cleavage, Western-blot", "type": "cell-based, human", "conditions": "PA-1, 24 h exposure to 50 μM or 100 μM", "description": "(§4) Two×10^6 cells were seeded in 150 cm^2 tissue culture flasks. […] After an additional twenty-four hours, cells were harvested, cell number determined, and aliquots derived from equal cell numbers generated from each exposure condition. Total proteins from these whole cell lysates were separated by SDS-PAGE and transferred to nitrocellulose filters. Filters were then immunoblotted to detect intact PARP protein and cleavage fragments by using the clone C-2-10 mouse monoclonal anti-PARP antibody (Zymed Laboratories, San Francisco, Calif.). The resulting protein-antibody complexes were visualized by chemiluminescence techniques.\n(§5) Western-blot analysis was used to assess of PARP cleavage. Two×10^6 cells were seeded into separate 75 cm^2 tissue culture flasks containing 20 ml of tissue culture media plus serum. […] Twenty-four hours after the addition of Taurolidine, cells were harvested cell number determined, and aliquots containing an equal cell number were generated from each exposure condition. Total proteins from whole cell lysates generated from these aliquots were separated by SDS-PAGE and electrotransferred to nitrocellulose filters. Filters were then processed to detect intact PARP protein and cleavage fragments by using the clone C-2-10 mouse monoclonal anti-PARP antibody (Zymed Laboratories, San Francisco, Calif.). […]"}, "SKOV-3 cells": {"tested_on": "SKOV-3 cells", "assay": "PARP cleavage, Western-blot", "type": "cell-based, human", "conditions": "SKOV-3, 24 h exposure to 50 μM or 100 μM", "description": "as §4, §5"}}, "data": [{"compound": "O=S1(=O)CCN(CN2CCS(=O)(=O)NC2)CN1", "note": "[Taurolidine, Bis-(1,1-dioxoperhydro-1,2,4-thiadiazinyl-4)methane]", "values": [{"measurement": "Cell Cycle Distribution, G0G1", "setting": "[1]; 25 μM", "value": "45.8 ± 2.7", "unit": "%"}, {"measurement": "Cell Cycle Distribution, G2/M", "setting": "[1]; 25 μM", "value": "12.3 ± 3.1", "unit": "%"}, {"measurement": "Cell Cycle Distribution, S", "setting": "[1]; 25 μM", "value": "41.9 ± 4.2", "unit": "%"}, {"measurement": "Cell Cycle Distribution, G0G1", "setting": "[1]; 50 μM", "value": "30.7 ± 9.4", "unit": "%"}, {"measurement": "Cell Cycle Distribution, G2/M", "setting": "[1]; 50 μM", "value": "30.3 ± 10.5", "unit": "%"}, {"measurement": "Cell Cycle Distribution, S", "setting": "[1]; 50 μM", "value": "45.5 ± 12.4", "unit": "%"}, {"measurement": "Cell Cycle Distribution, G0G1", "setting": "[1]; 100 μM", "value": "19.9 ± 6.1", "unit": "%"}, {"measurement": "Cell Cycle Distribution, G2/M", "setting": "[1]; 100 μM", "value": "25.9 ± 7.8", "unit": "%"}, {"measurement": "Cell Cycle Distribution, S", "setting": "[1]; 100 μM", "value": "54.2 ± 8.6", "unit": "%"}, {"measurement": "DNA debris in the sub-G0/G1 region", "setting": "[1]; SKOV-3, 48 h, 25-100 μM", "value": "appearance of DNA debris in the sub-G0G1 region"}, {"measurement": "Cell Cycle Distribution, G0G1", "setting": "[2]; 25 μM", "value": "42.5 ± 9.6", "unit": "%"}, {"measurement": "Cell Cycle Distribution, G2/M", "setting": "[2]; 25 μM", "value": "13.0 ± 4.0", "unit": "%"}, {"measurement": "Cell Cycle Distribution, S", "setting": "[2]; 25 μM", "value": "44.9 ± 5.6", "unit": "%"}, {"measurement": "Cell Cycle Distribution, G0G1", "setting": "[2]; 50 μM", "value": "33.9 ± 10.2", "unit": "%"}, {"measurement": "Cell Cycle Distribution, G2/M", "setting": "[2]; 50 μM", "value": "21.8 ± 4.6", "unit": "%"}, {"measurement": "Cell Cycle Distribution, S", "setting": "[2]; 50 μM", "value": "44.3 ± 5.9", "unit": "%"}, {"measurement": "Cell Cycle Distribution, G0G1", "setting": "[2]; 100 μM", "value": "25.8 ± 1.7", "unit": "%"}, {"measurement": "Cell Cycle Distribution, G2/M", "setting": "[2]; 100 μM", "value": "11.0 ± 11.0", "unit": "%"}, {"measurement": "Cell Cycle Distribution, S", "setting": "[2]; 100 μM", "value": "63.2 ± 9.8", "unit": "%"}, {"measurement": "DNA debris in the sub-G0/G1 region", "setting": "[2]; 25-100 μM", "value": "did not significantly affect the appearance of DNA debris"}, {"measurement": "PARP cleavage", "setting": "PA-1 cells", "value": "resulted in PARP cleavage"}, {"measurement": "PARP cleavage", "setting": "SKOV-3 cells", "value": "resulted in PARP cleavage"}]}]}
